Reference: patent publication US12052991B2, “Substituted pyridinyloxybenzenes and salts thereof and use thereof as herbicidal agents” (Bayer Aktiengesellschaft, priority 2018, dated 2024)

How the values were obtained:
Format in all cases: in vivo
[1] = tested on: Alopecurus myosuroides (ALOMY); experiment: Herbicidal post-emergence action (Table B9); details: rated visually after about 3 weeks, 100% = plants have died, 0% = like control plants
Summary of the method: (§1)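 Greenhouse pot-grown weeds in sandy loam, sprayed at the one-leaf stage (2–3 weeks post-sowing) with WP or EC formulations plus 0.5% additive at 600 l/ha water, at 1280 or 320 g/ha. Visual % activity versus untreated controls rated about 3 weeks later (100% = dead).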

[2] = tested on: Digitaria sanguinalis (DIGSA); experiment: Herbicidal post-emergence action (Table B10); details: visual rating about 3 weeks after treatment, 100% = plants have died, 0% = like control plants
Summary of the method: as §1

Bassia scoparia (KCHSC) = experiment: Herbicidal post-emergence action (Table B11); details: visual rating about 3 weeks after treatment, 100% = plants have died, 0% = like control plants
Summary of the method: as §1

Veronica persica (VERPE) [3] = experiment: Herbicidal post-emergence action (Table B12); details: visual rating about 3 weeks after treatment, 100% = plants have died, 0% = like control plants
Summary of the method: as §1

[4] = tested on: Digitaria sanguinalis (DIGSA); experiment: Herbicidal pre-emergence action, test C (Table C10); details: visual scoring after about 3 weeks, 100% = plants have died, 0% = like control plants
Summary of the method: (§2)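 Compounds formulated as WP or EC were sprayed onto soil covering freshly sown weed seeds at 600 L/ha water with 0.5% additive, at 1280 or 320 g/ha. Pots were kept in a greenhouse. After about 3 weeks, damage was scored visually as % versus untreated controls (100% = plants dead).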

[5] = tested on: Digitaria sanguinalis (DIGSA); experiment: Herbicidal pre-emergence action, test D, single sowings (Table D2); details: 80 g/ha; scored visually after about 3 weeks; 100% = plants have died, 0% = like control plants
From the text: (§3) Seeds of monocotyledonous and dicotyledonous weed plants were laid out in plastic or organic plant pots (single sowings with one species of mono- or dicotyledonous weed plant per pot) and covered with soil. The compounds of the invention, formulated in the form of wettable powders (WP) or as emulsion concentrates (EC), were then applied to the surface of the covering soil as aqueous suspension or emulsion with addition of 0.5% additive at a water application rate equivalent to 600 l/ha (converted). After the treatment, the pots were placed in a greenhouse and kept under good growth conditions for the test plants. After about 3 weeks, the effect of the preparations was scored visually in comparison with untreated controls as percentages. For example, 100% activity=the plants have died, 0% activity=like control plants. Tables D1 to D8 below show the effects of selected compounds of the general formula (I) according to Table 1 on various harmful plants and an application rate corresponding to 80 g/ha, which were obtained by the experimental procedure mentioned above.

Setaria viridis (SETVI) = experiment: Herbicidal pre-emergence action, test D, single sowings (Table D3); details: dosage 80 g/ha, scored after about 3 weeks
From the text: as §3

viola tricolor (VIOTR) = experiment: Herbicidal pre-emergence action, test D, single sowings (Table D7); details: dosage 80 g/ha, scored after about 3 weeks
From the text: as §3

Veronica persica (VERPE) [6] = experiment: Herbicidal pre-emergence action, test D, single sowings (Table D8); details: dosage 80 g/ha, scored after about 3 weeks
From the text: as §3

[7] = tested on: corn (ZEAMX, var. Aventura); experiment: Pre-emergence crop plant compatibility (Table E1); details: dosage 80 g/ha, scored after about 3 weeks, 0% = like control plants
From the text: as §3, with “crop” for “weed”, “placed” for “laid out”, “pots” for “pots (single sowings with one species of mono- or dicotyledonous weed plant per pot)”, “plants.” for “plants. Tables D1 to D8 below show the effects of selected compounds of the general formula (I) according to Table 1 on various harmful plants and an application rate corresponding to 80 g/ha, which were obtained by the experimental procedure mentioned above.”

[8] = tested on: soybean (GLXMA, var. Sultana); experiment: Pre-emergence crop plant compatibility (Table E1); details: dosage 80 g/ha, scored after about 3 weeks, 0% = like control plants
From the text: as §3, with “crop” for “weed”, “placed” for “laid out”, “pots” for “pots (single sowings with one species of mono- or dicotyledonous weed plant per pot)”, “plants.” for “plants. Tables D1 to D8 below show the effects of selected compounds of the general formula (I) according to Table 1 on various harmful plants and an application rate corresponding to 80 g/ha, which were obtained by the experimental procedure mentioned above.”

[9] = tested on: wheat (TRZAS, var. Triso); experiment: Pre-emergence crop plant compatibility (Table E1); details: dosage 80 g/ha, scored after about 3 weeks, 0% = like control plants
From the text: as §3, with “crop” for “weed”, “placed” for “laid out”, “pots” for “pots (single sowings with one species of mono- or dicotyledonous weed plant per pot)”, “plants.” for “plants. Tables D1 to D8 below show the effects of selected compounds of the general formula (I) according to Table 1 on various harmful plants and an application rate corresponding to 80 g/ha, which were obtained by the experimental procedure mentioned above.”

[10] = tested on: harmful plants ALOMY, DIGSA, SETVI, ABUTH, AMARE, MATIN, VIOTR and VERPE; experiment: Herbicidal pre-emergence action (test D), summary of Tables D1-D8; details: application rate of 80 g of active ingredient per hectare; summary in words
From the text: as §3, with “plants.” for “plants. Tables D1 to D8 below show the effects of selected compounds of the general formula (I) according to Table 1 on various harmful plants and an application rate corresponding to 80 g/ha, which were obtained by the experimental procedure mentioned above.”
Tables D1 to D8 below show the effects of selected compounds of the general formula (I) according to Table 1 on various harmful plants and an application rate corresponding to 80 g/ha, which were obtained by the experimental procedure mentioned above.

[11] = tested on: Matricaria inodora (MATIN); experiment: Herbicidal post-emergence action (Table B7); details: rated visually after about 3 weeks, 100% = plants have died, 0% = like control plants
Summary of the method: as §1

[12] = tested on: Matricaria inodora (MATIN); experiment: Herbicidal pre-emergence action, test C (Table C7); details: visual scoring after about 3 weeks, 100% = plants have died, 0% = like control plants
Summary of the method: as §2

Fc1cc(Cl)cnc1Oc1ccccc1-c1cc(C(F)F)no1 [Example 1-36]
Post-emergence action against Alopecurus myosuroides (ALOMY) ([1]; 320 g/ha): 100%
Post-emergence action against Alopecurus myosuroides (ALOMY) ([1]; 1280 g/ha): 100%
Post-emergence action against Digitaria sanguinalis (DIGSA) ([2]; dosage 320 g/ha): 100%
Post-emergence action against Digitaria sanguinalis (DIGSA) ([2]; dosage 1280 g/ha): 100%
Post-emergence action against Bassia scoparia (KCHSC) (Bassia scoparia (KCHSC); dosage 320 g/ha): 100%
Post-emergence action against Bassia scoparia (KCHSC) (Bassia scoparia (KCHSC); dosage 1280 g/ha): 100%
Post-emergence action against Veronica persica (VERPE) (Veronica persica (VERPE) [3]; dosage 320 g/ha): 100%
Post-emergence action against Veronica persica (VERPE) (Veronica persica (VERPE) [3]; dosage 1280 g/ha): 100%
Pre-emergence action against Digitaria sanguinalis (DIGSA) ([4]; dosage 320 g/ha): 100%
Pre-emergence action against Digitaria sanguinalis (DIGSA) ([4]; dosage 1280 g/ha): 100%
Pre-emergence action against Digitaria sanguinalis (DIGSA) [5]: 100%
Pre-emergence action against Setaria viridis (SETVI) (Setaria viridis (SETVI)): 80%
Pre-emergence action against viola tricolor (VIOTR) (viola tricolor (VIOTR)): 100%
Pre-emergence action against Veronica persica (VERPE) (Veronica persica (VERPE) [6]): 100%
Crop plant compatibility in pre-emergence, ZEAMX (damage to corn) [7]: 20%
Crop plant compatibility in pre-emergence, GLXMA (damage to soybean) [8]: 10%
Crop plant compatibility in pre-emergence, TRZAS (damage to wheat) [9]: 0%
herbicidal activity against the harmful plants of Tables D1-D8 in pre-emergence treatment [10]: very good herbicidal activity

Cc1cccc(Oc2ncc(Cl)cc2F)c1-c1cc(C(F)F)no1 [Example 1-20]
Post-emergence action against Matricaria inodora (MATIN) ([11]; 1280 g/ha): 100%
Post-emergence action against Alopecurus myosuroides (ALOMY) ([1]; 320 g/ha): 100%
Post-emergence action against Alopecurus myosuroides (ALOMY) ([1]; 1280 g/ha): 100%
Post-emergence action against Digitaria sanguinalis (DIGSA) ([2]; dosage 320 g/ha): 100%
Post-emergence action against Digitaria sanguinalis (DIGSA) ([2]; dosage 1280 g/ha): 100%
Post-emergence action against Bassia scoparia (KCHSC) (Bassia scoparia (KCHSC); dosage 320 g/ha): 100%
Post-emergence action against Bassia scoparia (KCHSC) (Bassia scoparia (KCHSC); dosage 1280 g/ha): 100%
Post-emergence action against Veronica persica (VERPE) (Veronica persica (VERPE) [3]; dosage 320 g/ha): 100%
Post-emergence action against Veronica persica (VERPE) (Veronica persica (VERPE) [3]; dosage 1280 g/ha): 100%
Pre-emergence action against Matricaria inodora (MATIN) ([12]; dosage 320 g/ha): 100%
Pre-emergence action against Matricaria inodora (MATIN) ([12]; dosage 1280 g/ha): 100%
Pre-emergence action against Digitaria sanguinalis (DIGSA) ([4]; dosage 320 g/ha): 90%
Pre-emergence action against Digitaria sanguinalis (DIGSA) ([4]; dosage 1280 g/ha): 100%

Cc1cccc(Oc2ccc(Cl)cn2)c1-c1cc(C(F)F)no1 [Example 1-18, 5-[2-[(5-Chloro-2-pyridyl)oxy]-6-methylphenyl]-3-(difluoromethyl)isoxazole]
Post-emergence action against Matricaria inodora (MATIN) ([11]; 1280 g/ha): 100%
Post-emergence action against Alopecurus myosuroides (ALOMY) ([1]; 320 g/ha): 100%
Post-emergence action against Alopecurus myosuroides (ALOMY) ([1]; 1280 g/ha): 100%
Post-emergence action against Digitaria sanguinalis (DIGSA) ([2]; dosage 320 g/ha): 100%
Post-emergence action against Digitaria sanguinalis (DIGSA) ([2]; dosage 1280 g/ha): 100%
Post-emergence action against Bassia scoparia (KCHSC) (Bassia scoparia (KCHSC); dosage 320 g/ha): 100%
Post-emergence action against Bassia scoparia (KCHSC) (Bassia scoparia (KCHSC); dosage 1280 g/ha): 100%
Post-emergence action against Veronica persica (VERPE) (Veronica persica (VERPE) [3]; dosage 320 g/ha): 100%
Post-emergence action against Veronica persica (VERPE) (Veronica persica (VERPE) [3]; dosage 1280 g/ha): 100%
Pre-emergence action against Matricaria inodora (MATIN) ([12]; dosage 320 g/ha): 100%
Pre-emergence action against Matricaria inodora (MATIN) ([12]; dosage 1280 g/ha): 100%
Pre-emergence action against Digitaria sanguinalis (DIGSA) ([4]; dosage 320 g/ha): 100%
Pre-emergence action against Digitaria sanguinalis (DIGSA) ([4]; dosage 1280 g/ha): 100%

FC(F)c1cc(-c2ccccc2Oc2ccc(Cl)cn2)on1 [Example 1-35]
Post-emergence action against Alopecurus myosuroides (ALOMY) ([1]; 320 g/ha): 100%
Post-emergence action against Alopecurus myosuroides (ALOMY) ([1]; 1280 g/ha): 100%
Post-emergence action against Digitaria sanguinalis (DIGSA) ([2]; dosage 320 g/ha): 90%
Post-emergence action against Digitaria sanguinalis (DIGSA) ([2]; dosage 1280 g/ha): 100%
Post-emergence action against Bassia scoparia (KCHSC) (Bassia scoparia (KCHSC); dosage 320 g/ha): 100%
Post-emergence action against Bassia scoparia (KCHSC) (Bassia scoparia (KCHSC); dosage 1280 g/ha): 100%
Post-emergence action against Veronica persica (VERPE) (Veronica persica (VERPE) [3]; dosage 320 g/ha): 100%
Post-emergence action against Veronica persica (VERPE) (Veronica persica (VERPE) [3]; dosage 1280 g/ha): 100%
Pre-emergence action against Matricaria inodora (MATIN) ([12]; dosage 320 g/ha): 90%
Pre-emergence action against Matricaria inodora (MATIN) ([12]; dosage 1280 g/ha): 100%
Pre-emergence action against Digitaria sanguinalis (DIGSA) ([4]; dosage 1280 g/ha): 100%
Pre-emergence action against Digitaria sanguinalis (DIGSA) [5]: 100%
Pre-emergence action against Setaria viridis (SETVI) (Setaria viridis (SETVI)): 100%
Pre-emergence action against viola tricolor (VIOTR) (viola tricolor (VIOTR)): 90%
Pre-emergence action against Veronica persica (VERPE) (Veronica persica (VERPE) [6]): 100%
Crop plant compatibility in pre-emergence, ZEAMX (damage to corn) [7]: 10%
Crop plant compatibility in pre-emergence, GLXMA (damage to soybean) [8]: 20%
Crop plant compatibility in pre-emergence, TRZAS (damage to wheat) [9]: 0%
herbicidal activity against the harmful plants of Tables D1-D8 in pre-emergence treatment [10]: very good herbicidal activity

Fc1cccc(Oc2ccc(Cl)cn2)c1-c1cc(C(F)F)no1 [Example 1-17]
Post-emergence action against Matricaria inodora (MATIN) ([11]; 320 g/ha): 100%
Post-emergence action against Matricaria inodora (MATIN) ([11]; 1280 g/ha): 100%
Pre-emergence action against Digitaria sanguinalis (DIGSA) [5]: 90%
Pre-emergence action against Setaria viridis (SETVI) (Setaria viridis (SETVI)): 100%
Pre-emergence action against viola tricolor (VIOTR) (viola tricolor (VIOTR)): 100%
Pre-emergence action against Veronica persica (VERPE) (Veronica persica (VERPE) [6]): 100%
Crop plant compatibility in pre-emergence, ZEAMX (damage to corn) [7]: 0%
Crop plant compatibility in pre-emergence, GLXMA (damage to soybean) [8]: 20%
Crop plant compatibility in pre-emergence, TRZAS (damage to wheat) [9]: 20%
herbicidal activity against the harmful plants of Tables D1-D8 in pre-emergence treatment [10]: very good herbicidal activity

Fc1cccc(Oc2ccc(Br)cn2)c1-c1cc(C(F)F)no1 [Example 1-40]
Post-emergence action against Matricaria inodora (MATIN) ([11]; 320 g/ha): 100%
Post-emergence action against Matricaria inodora (MATIN) ([11]; 1280 g/ha): 100%
Post-emergence action against Alopecurus myosuroides (ALOMY) ([1]; 320 g/ha): 100%
Post-emergence action against Alopecurus myosuroides (ALOMY) ([1]; 1280 g/ha): 100%
Post-emergence action against Digitaria sanguinalis (DIGSA) ([2]; dosage 320 g/ha): 100%
Post-emergence action against Digitaria sanguinalis (DIGSA) ([2]; dosage 1280 g/ha): 100%
Post-emergence action against Bassia scoparia (KCHSC) (Bassia scoparia (KCHSC); dosage 320 g/ha): 100%
Post-emergence action against Bassia scoparia (KCHSC) (Bassia scoparia (KCHSC); dosage 1280 g/ha): 100%
Post-emergence action against Veronica persica (VERPE) (Veronica persica (VERPE) [3]; dosage 320 g/ha): 100%
Post-emergence action against Veronica persica (VERPE) (Veronica persica (VERPE) [3]; dosage 1280 g/ha): 100%
Pre-emergence action against Matricaria inodora (MATIN) ([12]; dosage 320 g/ha): 100%
Pre-emergence action against Matricaria inodora (MATIN) ([12]; dosage 1280 g/ha): 100%
Pre-emergence action against Digitaria sanguinalis (DIGSA) ([4]; dosage 320 g/ha): 100%
Pre-emergence action against Digitaria sanguinalis (DIGSA) ([4]; dosage 1280 g/ha): 100%
